The structures appear in SMILES notation.

The assay has as its target T1, human GPR119 (Homo sapiens, UniProt Q8TDV5).
T1 sequence (Q8TDV5 1-308 limits assumed): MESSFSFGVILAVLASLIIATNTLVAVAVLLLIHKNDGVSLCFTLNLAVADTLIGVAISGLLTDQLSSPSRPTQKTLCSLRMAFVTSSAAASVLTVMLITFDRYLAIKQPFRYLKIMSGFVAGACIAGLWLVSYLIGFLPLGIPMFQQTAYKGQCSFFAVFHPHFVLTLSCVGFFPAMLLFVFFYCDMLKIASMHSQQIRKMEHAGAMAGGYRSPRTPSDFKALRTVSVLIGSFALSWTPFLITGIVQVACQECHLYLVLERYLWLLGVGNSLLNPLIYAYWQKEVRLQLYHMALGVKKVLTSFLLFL
Kind of assay: Measurement of GPR119 signaling (cAMP assay; LANCE kit or HTRF) in HEK293 cells stably transfected with human GPR119. The format is cell-based. As to conditions: agonist-stimulated cAMP in HEK293 cells expressing human GPR119. As for the experimental part:
Measurement of GPR119 Signaling Using LANCE 384-Well cAMP Kit
The adenylate cyclase assay was constructed following the LANCE™ cAMP Kit (Perkin Elmer, AD0264) instructions. […] The reaction was stopped by incubating with the supplied detection buffer containing the europium chelate of the Eu-SA/Biotin-cAMP tracer for 3 hours. The assay was performed in duplicate in a 384 well plate for duplicate plates. Fluorescence at 665 nm was measured using a PHERAstar instrument. Basal activity was determined using a DMSO control and maximum response was defined as cAMP stimulation produced by an internal agonist control. Standard cAMP concentrations were assayed concurrently for conversion of fluorescence signal to cAMP level. The data was analyzed using 4-parameter curve fit in Microsoft Excel.
Measurement of GPR119 Signaling Using a Cyclic AMP (cAMP) Homogenous Time Resolved Fluorescence (HTRF) Assay
Chinese hamster ovary (CHO) cell lines stably transfected with the permissive guanine nucleotide binding protein alpha 15 (Gα15) and murine GPR119 were maintained in DMEM media containing FBS, penicillin-streptomycin, puromycin, and G418 (geneticin). […] Agonist activation of the GPR119 receptor was measured in receptor transfected cells described above, treated with compounds of this invention, using a commercial homogenous time resolved fluorescence (HTRF) kit for measurement of cAMP (CisBio, Bedford, Mass.). The assay was performed in 96-well half-volume plates (murine) or 384-well plates (human) following the manufacturers instructions. Briefly, suspended cells were incubated with a dose titration of test compound at RT for 60 min, lysed, and incubated with HTRF reagents for an additional 60 min. The plate was read using an Envision multilabel reader (Perkin Elmer) adjusted to read time resolved fluorescence and the cAMP concentrations were extrapolated from a cAMP calibration curve. […] The concentration of test compound required to stimulate a half-maximal response (EC50), and efficacy as compared to an internal agonist control, was determined from a sigmoidal 4-parameter curve fit of the resulting plot of normalized activity versus compound concentration.
`CS(=O)(=O)c1c(F)cc(COC[C@@H]2C[C@@H]2C2CCN(c3ncc(C4CC4)cn3)CC2)cc1F` [Example 48, 5-cyclopropyl-2-{4-[(1R,2R)-2-({[3,5-difluoro-4-(methylsulfonyl)benzyl]oxy}methyl)cyclopropyl]piperidin-1-yl}pyrimidine] had an EC50 of 0.6 nM.
To `CC1(OC(=O)N2CCC([C@H]3C[C@H]3COCc3cc(F)c(S(C)(=O)=O)c(F)c3)CC2)CC1` [Example 49, 1-methylcyclopropyl 4-[(1R,2R)-2-({[3,5-difluoro-4-(methylsulfonyl)benzyl]oxy}methyl)cyclopropyl] piperidine-1-carboxylate] belongs 11.7 nM; to `CC(C)OC(=O)N1CCC([C@H]2C[C@H]2COCc2cc(F)c(S(C)(=O)=O)c(F)c2)CC1` [Example 50, isopropyl 4-[(1R,2R)-2-({[3,5-difluoro-4-(methylsulfonyl)benzyl]oxy}methyl)cyclopropyl] piperidine-1-carboxylate], 20.5 nM.
Regarding `O=C(c1ccc(COC[C@@H]2C[C@@H]2C2CCN(c3ncc(Cl)cn3)CC2)cc1F)C1CC1` [Example 51], the midpoint of the response, the EC50, lay at 3.7 nM.
Compound `CC(C)(C)OC(=O)N1CCC([C@H]2C[C@H]2COCc2cc(F)c(C(=O)C3CC3)c(F)c2)CC1` [Example 52, tert-butyl 4-[(1R,2R)-2-({[4-(cyclopropylcarbonyl)-3,5-difluorobenzyl]oxy}methyl)cyclopropyl]piperidine-1-carboxylate] came in with an EC50 of 2.4 nM.
To `O=C(c1c(F)cc(COC[C@@H]2C[C@@H]2C2CCN(c3ncc(Cl)cn3)CC2)cc1F)C1CC1` [Example 53] belongs 1 nM; to `CCc1cnc(N2CCC([C@H]3C[C@H]3COCc3ccc(-c4ncco4)cc3)CC2)nc1` [Example 54, 5-ethyl-2-{4-[(1R,2R)-2-({[4-(1,3-oxazol-2-yl)benzyl]oxy}methyl)cyclopropyl]piperidin-1-yl}pyrimidine], 12 nM; to `CCc1cnc(N2CCC([C@H]3C[C@H]3COCc3ccc(S(=O)(=O)C4CC4)cc3)CC2)nc1` [Example 56, 2-{4-[(1R,2R)-2-({[4-(cyclopropylsulfonyl)benzyl]oxy}methyl)cyclopropyl]piperidin-1-yl}-5-ethylpyrimidine], 1.2 nM.
For `CCc1cnc(N2CCC([C@H]3C[C@H]3COCc3ccc(S(=O)(=O)CC)cc3)CC2)nc1` [Example 57, 5-ethyl-2-{4-[(1R,2R)-2-({[4-(ethylsulfonyl)benzyl]oxy}methyl)cyclopropyl]piperidin-1-yl}pyrimidine], the EC50 came to 0.3 nM.
To `CCc1cnc(N2CCC([C@H]3C[C@H]3COCc3ccc(C[C@@H](C)O)cc3)CC2)nc1` [Example 58, (2R)-1-{4-[({(1R,2R)-2-[1-(5-ethylpyrimidin-2-yl)piperidin-4-yl]cyclopropyl}methoxy)methyl]phenyl}propan-2-ol] belongs 11 nM.
Regarding `CCc1cnc(N2CCC([C@H]3C[C@H]3COCc3ccc(C[C@H](C)O)cc3)CC2)nc1` [Example 59, (2S)-1-{4-[({(1R,2R)-2-[1-(5-ethylpyrimidin-2-yl)piperidin-4-yl]cyclopropyl}methoxy)methyl]phenyl}propan-2-ol], the EC50 came to 1.6 nM. This EC50 lies about 6.9-fold lower than the previous one.
To `CCc1cnc(N2CCC([C@H]3C[C@H]3COCc3ccc(CCO)cc3)CC2)nc1` [Example 60, 2-{4-[({(1R,2R)-2-[1-(5-ethylpyrimidin-2-yl)piperidin-4-yl]cyclopropyl}methoxy)methyl]phenyl}ethanol] belongs 2.5 nM.
To `CCc1cnc(N2CCC([C@H]3C[C@H]3COCc3ccc(-n4cnnn4)cc3)CC2)nc1` [Example 61, 5-ethyl-2-{4-[(1R,2R)-2-({[4-(1H-tetrazol-1-yl)benzyl]oxy}methyl)cyclopropyl]piperidin-1-yl}pyrimidine] belongs 0.07 nM; to `CCc1cnc(N2CCC([C@H]3C[C@H]3COCc3ccc(-n4ccnn4)cc3)CC2)nc1` [Example 62, 5-ethyl-2-{4-[(1R,2R)-2-({[4-(1H-1,2,3-triazol-1-yl)benzyl]oxy}methyl)cyclopropyl]piperidin-1-yl}pyrimidine], 0.3 nM; to `CCc1cnc(N2CCC([C@H]3C[C@H]3COCc3ccc(-c4ncno4)cc3)CC2)nc1` [Example 63, 5-ethyl-2-{4-[(1R,2R)-2-({[4-(1,2,4-oxadiazol-5-yl)benzyl]oxy}methyl)cyclopropyl]piperidin-1-yl}pyrimidine], 5.5 nM.
To `CCc1cnc(N2CCC([C@H]3C[C@H]3COCc3ccc(S(=O)(=O)CC[C@H](C)O)cc3)CC2)nc1` [Example 64] belongs 0.6 nM; to `CCc1cnc(N2CCC([C@H]3C[C@H]3[C@H](COC)OCc3ccc(S(C)(=O)=O)cc3)CC2)nc1` [Example 65], 850 nM; to `CCc1cnc(N2CCC([C@H]3C[C@H]3[C@@H](COC)OCc3ccc(S(C)(=O)=O)cc3)CC2)nc1` [Example 66], 0.19 nM.
In turn, `CCc1cnc(N2CCC([C@H]3C[C@H]3[C@@H](COC)OCc3ccc(S(=O)(=O)CC)cc3)CC2)nc1` [Example 67] yielded an EC50 of 0.16 nM.
To `CS(=O)(=O)c1ccc(COC[C@@H]2C[C@@H]2C2CCN(c3ncc(Cl)cn3)CC2)c(F)c1` [Example 68] belongs 0.18 nM.
To `CS(=O)(=O)c1ccc(COC[C@@H]2C[C@@H]2C2CCN(c3ncc(F)cn3)CC2)c(F)c1` [Example 69] belongs 2.4 nM; to `CS(=O)(=O)c1ccc(COC[C@@H]2C[C@@H]2C2CCN(c3ncc(Br)cn3)CC2)c(F)c1` [Example 70], 0.19 nM; to `CS(=O)(=O)c1ccc(COC[C@@H]2C[C@@H]2C2CCN(c3ncc(C=O)cn3)CC2)c(F)c1` [Example 71, 2-{4-[(1R,2R)-2-({[2-fluoro-4-(methylsulfonyl)benzyl]oxy}methyl)cyclopropyl]piperidin-1-yl} pyrimidine-5-carbaldehyde], 13.6 nM.
To `CS(=O)(=O)c1ccc(COC[C@@H]2C[C@@H]2C2CCN(c3ncc(C#N)cn3)CC2)c(F)c1` [Example 72] belongs 9.3 nM; to `Cc1cnc(N2CCC([C@H]3C[C@H]3COCc3ccc(S(C)(=O)=O)cc3F)CC2)nc1` [Example 74], 4.3 nM; to `CC(C)(O)c1cnc(N2CCC([C@H]3C[C@H]3COCc3ccc(S(C)(=O)=O)cc3F)CC2)nc1` [Example 75, 2-(2-{4-[(1R,2R)-2-({[2-fluoro-4-(methylsulfonyl)benzyl]oxy}methyl)cyclopropyl]piperidin-1-yl}pyrimidin-5-yl)propan-2-ol], 25 nM.
For the compound `CC(C)(O)c1cnc(N2CCC([C@H]3C[C@H]3COCc3ccc(S(C)(=O)=O)cc3F)CC2)nc1` [Example 76], the midpoint of the response, the EC50, lay at 15 nM.
To `COCc1cnc(N2CCC([C@H]3C[C@H]3COCc3ccc(S(C)(=O)=O)cc3F)CC2)nc1` [Example 77, 2-{4-[(1R,2R)-2-({[2-fluoro-4-(methylsulfonyl)benzyl]oxy}methyl)cyclopropyl]piperidin-1-yl}-5-(methoxymethyl)pyrimidine] belongs 1.6 nM.

In general, EC50 refers to the concentration giving half of the maximal effect.

The values above are taken from patent publication US9006228B2 (Merck Sharp & Dohme Corp., priority 2011, dated 2015).
